Here are results for 2 compounds from ChEMBL document CHEMBL1201862, “PubChem BioAssay data set” (2004).

The structures appear in SMILES notation. Calls of active or inactive are those of the source.

The nature of test [1]: Luminescence Cell-Based Dose Confirmation HTS to Identify Activators of 5'UTR Stem-Loop Driven Alpha-Synuclein mRNA Translation in H4 Neuroglioblastoma Cells. [Related pubchem assays: 1829 (Project Summary), 1814 (Primary HTS)]. The test is classed as functional.
The target in a further test is Large T antigen (Simian virus 40, UniProt P03070). The test is classed as functional, Betapolyomavirus macacae.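 Also: Confirmatory-stage PubChem screen for compounds that inhibit SV40 T antigen.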
Test [2] has as its target Sphingosine 1-phosphate receptor 1 (Homo sapiens, UniProt P21453). The test is classed as functional.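 Also: Tango beta-arrestin reporter U2OS cells stimulated with S1P near its EC80; inhibitor potency meaning antagonism of receptor activation by the natural agonist.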
Test [3] in a line: Vero E6 cell cytotoxicity, dose response, cytotoxicity control for non-replicating M. tuberculosis project, secondary assay (AID 492998). Type of test: functional, VeroE6. The conditions noted are these: Vero C1008.
The subject of another test is CHO. The experiment in a line: cytotoxicity in TLR9-MyD88 CHO cells, dose response, cytotoxicity control for TLR9-MyD88 binding inhibitor project, cell-based, luminescence (AID 588339).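 Also: CHO cells stably coexpressing TLR9 and MyD88 fusions from primary screen; compound exposure lasted 48 hours before viability readout.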 The test is classed as functional, hamster. The conditions noted are these: Cricetulus griseus.
The nature of test [4]: inhibitors of PGC1a acetylation in cells, dose response, cell-based, cherry-picked samples (AID 720514).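 Also: potency may reflect raised or lowered acetylation signal.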 Type of test: functional.
Test [5] concerns the target T1, Heat shock factor protein 1 (Mus musculus, UniProt P38532).
T1 sequence (P38532 whole entry): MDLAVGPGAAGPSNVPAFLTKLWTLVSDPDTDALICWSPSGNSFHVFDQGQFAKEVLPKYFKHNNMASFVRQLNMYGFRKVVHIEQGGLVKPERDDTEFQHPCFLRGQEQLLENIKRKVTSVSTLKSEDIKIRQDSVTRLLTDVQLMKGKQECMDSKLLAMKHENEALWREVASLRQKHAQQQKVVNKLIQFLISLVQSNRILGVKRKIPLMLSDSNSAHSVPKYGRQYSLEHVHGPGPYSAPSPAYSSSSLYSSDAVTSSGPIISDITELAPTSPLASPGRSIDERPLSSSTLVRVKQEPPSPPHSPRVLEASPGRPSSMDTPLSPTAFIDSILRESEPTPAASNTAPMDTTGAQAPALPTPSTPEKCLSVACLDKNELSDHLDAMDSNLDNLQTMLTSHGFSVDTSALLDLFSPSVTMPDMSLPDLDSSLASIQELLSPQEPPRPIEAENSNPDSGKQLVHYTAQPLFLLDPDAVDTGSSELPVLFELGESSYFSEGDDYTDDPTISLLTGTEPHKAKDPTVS
The test can be described thus: inhibition of MG132-induced HSE-luciferase signal, confirmation, cell-based, NIH3T3, luminescence, dose retest (AID 2382).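 Also: NIH3T3 fibroblasts with HSF1-driven luciferase reporter stressed by proteasome inhibitor MG132; luminescence from HSF1-driven luciferase expression after 8 hours of MG132 stress.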 Type of test: functional.

Sequence of Sphingosine 1-phosphate receptor 1 (P21453 whole entry): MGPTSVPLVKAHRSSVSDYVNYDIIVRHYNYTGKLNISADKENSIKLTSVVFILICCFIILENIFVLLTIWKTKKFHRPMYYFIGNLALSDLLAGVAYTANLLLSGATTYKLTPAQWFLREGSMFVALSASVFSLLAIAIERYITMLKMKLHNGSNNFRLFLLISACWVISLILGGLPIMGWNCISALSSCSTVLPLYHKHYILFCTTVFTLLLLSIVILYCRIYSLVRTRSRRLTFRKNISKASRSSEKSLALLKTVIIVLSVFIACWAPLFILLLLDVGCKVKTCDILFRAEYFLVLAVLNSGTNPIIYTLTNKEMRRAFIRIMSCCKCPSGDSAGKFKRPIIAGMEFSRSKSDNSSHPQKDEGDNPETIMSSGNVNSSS
Sequence of Large T antigen (P03070 whole entry): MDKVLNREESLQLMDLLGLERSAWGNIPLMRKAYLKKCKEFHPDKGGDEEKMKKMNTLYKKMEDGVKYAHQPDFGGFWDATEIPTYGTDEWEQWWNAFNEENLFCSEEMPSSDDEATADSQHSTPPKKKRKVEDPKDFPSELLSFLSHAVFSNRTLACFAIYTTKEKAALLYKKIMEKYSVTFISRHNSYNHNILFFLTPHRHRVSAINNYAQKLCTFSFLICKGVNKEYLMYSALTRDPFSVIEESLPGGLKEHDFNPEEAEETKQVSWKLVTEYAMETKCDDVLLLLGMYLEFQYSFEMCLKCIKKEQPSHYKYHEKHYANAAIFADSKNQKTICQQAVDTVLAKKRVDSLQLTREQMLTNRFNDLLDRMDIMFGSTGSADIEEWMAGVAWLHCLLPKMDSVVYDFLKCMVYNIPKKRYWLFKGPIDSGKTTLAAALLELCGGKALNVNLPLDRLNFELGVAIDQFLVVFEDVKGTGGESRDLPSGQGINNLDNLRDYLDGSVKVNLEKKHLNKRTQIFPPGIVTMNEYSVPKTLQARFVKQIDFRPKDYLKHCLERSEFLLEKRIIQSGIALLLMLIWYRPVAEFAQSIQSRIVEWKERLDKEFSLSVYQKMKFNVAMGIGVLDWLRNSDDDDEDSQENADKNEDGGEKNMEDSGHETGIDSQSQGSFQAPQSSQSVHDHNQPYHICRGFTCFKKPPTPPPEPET

As for `O=C(Nc1ccccc1)c1nnsc1[S+]([O-])c1ccc(Cl)cc1` (configuration not stated), the EC50 in test [1] was 8.7 µM (active). The IC50 at Large T antigen is 25 µM (active); in test [2] it was > 49.8 µM (not active); in the test with CHO, 3.46 µM (active). Also, in test [3], the cytotoxic concentration (CC50) was 13.1 µM (active). For the same compound, the AC50 in test [4] was 10.3 µM (active).
Take `CC1OC(Nc2cccc3ccccc23)C(O)C(O)C1O` (configuration not stated): in test [5], the 50% effective concentration (EC50) is on record as > 195 µM (not active).
